# In ChEMBL document CHEMBL1128987, “Benzenesulfonamide-peptide conjugates as probes for secondary binding sites near the active site of carbonic anhydrase” (Bioorg Med Chem Lett, 1996):
# Columns and labels:
# Carbonic anhydrase 2 [1] = target: T1, Carbonic anhydrase 2 (Homo sapiens, UniProt P00918)
# Description: Kinetic constant for binding human carbonic anhydrase II
# Carbonic anhydrase 2 [2] = target: T1, Carbonic anhydrase 2; experiment: Dissociation constant was determined against human carbonic anhydrase II at 37 degree Centigrade in experiment 2
# Carbonic anhydrase 2 [3] = target: T1, Carbonic anhydrase 2; experiment: Dissociation constant was determined against human carbonic anhydrase II at 37 degree Celsius in experiment 1
compound,measurement,setting,value
NS(=O)(=O)c1ccc(C(=O)NCC(=O)O)cc1,k off,Carbonic anhydrase 2 [1],0.12 s⁻¹
same,Kd,Carbonic anhydrase 2 [2],330 nM
same,Kd,Carbonic anhydrase 2 [3],310 nM
